Data as given in ChEMBL document CHEMBL3259724, “Design, syntheses, and characterization of piperazine based chemokine receptor CCR5 antagonists as anti prostate cancer agents” (Bioorg Med Chem Lett, 2014).

Experiments:
PC-3 = assay: Antiproliferative activity against human PC3 cells after 72 hrs by WST-1 assay; type: functional, cell-based; details: PC-3, 72 h
[1] = Antiproliferative activity against human M12 cells after 72 hrs by WST-1 assay; type: functional, cell-based; details: M12, 72 h
[2] = Cytotoxicity against mouse NIH/3T3 cells after 48 hrs by neutral red uptake assay; type: cell-based, NIH3T3; details: read-out: TC50
[3] = molecular target: C-C chemokine receptor type 5 (Homo sapiens, UniProt P51681); assay: Antagonist activity at CCR5 (unknown origin) expressed in human MOLT4 cells assessed as inhibition of RANTES-stimulated calcium mobilization treated for 15 mins prior to RANTES addition by spectrophotometric analysis; type: functional, cell-based, MOLT-4
C-C chemokine receptor type 5, sequence (P51681 whole entry): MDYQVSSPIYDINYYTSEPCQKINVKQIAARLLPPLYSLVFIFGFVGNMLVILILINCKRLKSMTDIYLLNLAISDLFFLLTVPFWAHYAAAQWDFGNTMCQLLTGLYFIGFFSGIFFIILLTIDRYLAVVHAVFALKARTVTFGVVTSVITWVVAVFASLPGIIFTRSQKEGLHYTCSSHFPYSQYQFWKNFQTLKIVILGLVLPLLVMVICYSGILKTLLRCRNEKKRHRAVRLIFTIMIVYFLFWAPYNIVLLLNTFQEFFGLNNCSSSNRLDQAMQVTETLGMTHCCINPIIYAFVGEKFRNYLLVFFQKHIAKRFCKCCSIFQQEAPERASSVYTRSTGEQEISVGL

SMILES	IC50 (PC-3) [µM]	IC50 [3] [µM]	IC50 [1] [µM]	CC50 at 48 h [2] [µM]
CC(C)Oc1ccc(N2CCN(Cc3ccc(C(=O)O)cc3)CC2)cc1NC(=O)c1cnccn1	74		129	
CC(C)Oc1ccc(N2CCN(Cc3ccc(S(C)(=O)=O)cc3)CC2)cc1NC(=O)c1cnccn1	> 100		141	
CC(C)Oc1ccc(N2CCN(Cc3ccccc3[N+](=O)[O-])CC2)cc1NC(=O)c1cnccn1	62.9	16.8	183	> 50
Cc1ccc(-c2ccc3c(c2)C=C(C(=O)Nc2ccc(C[N+](C)(C)C4CCOCC4)cc2)CCC3)cc1	37.9		20.4	
CC(C)Oc1ccc(N2CCN(Cc3ccccc3)CC2)cc1NC(=O)c1cnccn1	67		29.9	46.6
CSc1ccc(CN2CCN(c3ccc(OC(C)C)c(NC(=O)c4cnccn4)c3)CC2)cc1	78		> 100	
CC(C)Oc1ccc(N2CCN(Cc3ccc([N+](=O)[O-])cc3)CC2)cc1NC(=O)c1cnccn1	49.1		78.7	29.3
COC(=O)c1ccc(CN2CCN(c3ccc(OC(C)C)c(NC(=O)c4cnccn4)c3)CC2)cc1	91.5		73.7	
CC(C)Oc1ccc(N2CCN(Cc3ccc(Cl)cc3)CC2)cc1NC(=O)c1cnccn1	56.1		26.3	1.6
CC(C)Oc1ccc(N2CCN(Cc3ccc(N(C)C)cc3)CC2)cc1NC(=O)c1cnccn1	71.2		65.9	> 50

These reach a lower IC50 (PC-3). Values come first.

IC50 (PC-3) [µM]	IC50 [3] [µM]	SMILES	IC50 [1] [µM]	CC50 at 48 h [2] [µM]
6.5		CCN(CC)c1ccc(CN2CCN(c3ccc(OC(C)C)c(NC(=O)c4cnccn4)c3)CC2)cc1	11.4	31.9
24.3		CC(=O)Nc1ccc(CN2CCN(c3ccc(OC(C)C)c(NC(=O)c4cnccn4)c3)CC2)cc1	39	7.8
19.7		Cc1ccc(CN2CCN(c3ccc(OC(C)C)c(NC(=O)c4cnccn4)c3)CC2)cc1	15.8	
31.5		CC(C)Oc1ccc(N2CCN(Cc3ccc(Br)cc3)CC2)cc1NC(=O)c1cnccn1	48.8	> 50
20.1		CC(C)Oc1ccc(N2CCN(Cc3ccc(N)cc3)CC2)cc1NC(=O)c1cnccn1	19.7	10.7
